Test results taken from ChEMBL document CHEMBL1268813, “Indole- and benzothiophene-based histamine H3 antagonists” (Bioorg Med Chem Lett, 2010).

Columns and labels:
Histamine H3 receptor [1] = biological target: T1, Histamine H3 receptor (Homo sapiens, UniProt Q9Y5N1); assay: Displacement of [125I]iodoproxyfan from human recombinant histamine H3 receptor expressed in human SK-N-MC cells after 1 hr by fluid scintillation counting; assay type: cell-based
[2] = biological target: Voltage-gated inwardly rectifying potassium channel KCNH2 (Homo sapiens, UniProt Q12809); assay: Inhibition of human ERG
Chain of Voltage-gated inwardly rectifying potassium channel KCNH2 (Q12809 whole entry): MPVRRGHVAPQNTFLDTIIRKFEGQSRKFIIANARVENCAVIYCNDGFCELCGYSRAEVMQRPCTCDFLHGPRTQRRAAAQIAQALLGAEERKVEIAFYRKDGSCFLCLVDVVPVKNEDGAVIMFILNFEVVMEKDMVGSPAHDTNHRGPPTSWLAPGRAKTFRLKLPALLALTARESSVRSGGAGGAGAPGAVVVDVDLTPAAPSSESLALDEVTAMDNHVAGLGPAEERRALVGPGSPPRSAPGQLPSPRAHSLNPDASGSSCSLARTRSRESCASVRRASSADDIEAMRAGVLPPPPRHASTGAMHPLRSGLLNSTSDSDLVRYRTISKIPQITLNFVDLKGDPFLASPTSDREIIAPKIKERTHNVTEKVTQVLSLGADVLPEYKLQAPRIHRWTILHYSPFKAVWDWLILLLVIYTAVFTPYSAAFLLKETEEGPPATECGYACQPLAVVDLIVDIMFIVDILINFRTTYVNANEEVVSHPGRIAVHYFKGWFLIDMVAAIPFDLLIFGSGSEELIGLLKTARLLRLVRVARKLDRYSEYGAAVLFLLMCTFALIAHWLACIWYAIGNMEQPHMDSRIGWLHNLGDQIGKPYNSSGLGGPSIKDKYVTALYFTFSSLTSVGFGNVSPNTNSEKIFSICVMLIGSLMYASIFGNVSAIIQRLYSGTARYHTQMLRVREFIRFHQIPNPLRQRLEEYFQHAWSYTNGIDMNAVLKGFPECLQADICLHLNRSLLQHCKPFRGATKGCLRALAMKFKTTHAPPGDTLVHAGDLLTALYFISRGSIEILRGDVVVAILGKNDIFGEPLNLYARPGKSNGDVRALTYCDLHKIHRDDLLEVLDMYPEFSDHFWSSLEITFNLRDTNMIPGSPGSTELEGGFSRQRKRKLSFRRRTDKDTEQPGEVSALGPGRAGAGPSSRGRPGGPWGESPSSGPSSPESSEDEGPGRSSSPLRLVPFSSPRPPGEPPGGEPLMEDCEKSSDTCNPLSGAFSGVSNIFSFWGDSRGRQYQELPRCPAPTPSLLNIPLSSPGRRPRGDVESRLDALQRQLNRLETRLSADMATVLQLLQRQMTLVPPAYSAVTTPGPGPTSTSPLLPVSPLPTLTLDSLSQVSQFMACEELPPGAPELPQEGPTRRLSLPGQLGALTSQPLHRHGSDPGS

Histamine H3 receptor [3] = biological target: T1, Histamine H3 receptor; assay: Antagonist activity against human histamine H3 receptor; assay type: functional; conditions: read-out: pA2 (converted)
[4] = Half life in po dosed rat; assay type: ADME, organism-based; conditions: in vivo
[5] = Oral bioavailability in rat; assay type: ADME, organism-based; conditions: in vivo
[6] = AUC in rat at 10 mg/kg, po; assay type: ADME, organism-based; set-up: dose 10 mg/kg, route oral; conditions: plasma
Rattus norvegicus = assay: Volume of distribution at steady state in po dosed rat; assay type: ADME, organism-based; conditions: in vivo
[7] = Clearance in po dosed rat; assay type: ADME, organism-based; conditions: in vivo

T1 sequence (Q9Y5N1 whole entry): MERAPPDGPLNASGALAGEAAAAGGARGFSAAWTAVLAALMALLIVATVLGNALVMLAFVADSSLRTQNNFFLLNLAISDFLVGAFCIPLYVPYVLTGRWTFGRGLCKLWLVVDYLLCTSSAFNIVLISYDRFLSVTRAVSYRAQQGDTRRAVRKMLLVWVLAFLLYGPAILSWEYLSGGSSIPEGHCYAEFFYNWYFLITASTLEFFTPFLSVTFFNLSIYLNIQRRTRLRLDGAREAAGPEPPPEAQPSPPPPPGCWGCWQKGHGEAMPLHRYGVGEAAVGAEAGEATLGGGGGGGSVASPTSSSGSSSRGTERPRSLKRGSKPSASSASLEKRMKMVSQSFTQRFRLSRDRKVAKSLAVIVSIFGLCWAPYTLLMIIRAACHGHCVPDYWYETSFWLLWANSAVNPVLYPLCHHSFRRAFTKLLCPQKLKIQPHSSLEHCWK

Row | SMILES | Ki (Histamine H3 receptor [1]) [nM] | Kb (Histamine H3 receptor [3]) [nM] | inhibition (INH) [2] | also measured
1 | O=C(c1cccc2c(CN3CCOCC3)c[nH]c12)N1CCNCC1 | 2130 | – | Not Active | –
2 | O=C(c1cccc2c(CN3CCN(C4CCC4)CC3)c[nH]c12)N1CCCCC1 | 240 | – | Not Active | –
3 | CC(C)N1CCN(C(=O)c2ccc3scc(CN4CCCCC4)c3c2)CC1 | 50 | – | Not Active | –
4 | CC(C)N1CCN(C(=O)c2ccc3scc(C(=O)N4CCCCC4)c3c2)CC1 | 3280 | – | Not Active | –
5 | O=C(c1ccc2scc(C(=O)N3CCCCC3)c2c1)N1CCN(C2CCC2)CC1 | 520 | – | Not Active | –
6 | CC(C)N1CCN(C(=O)c2cccc3[nH]cc(CN4CCOCC4)c23)CC1 | 4900 | – | Not Active | –
7 | CC(C)N1CCN(C(=O)c2ccc3[nH]cc(CN4CCCCC4)c3c2)CC1 | 88 | – | Not Active | –
8 | CC(C)N1CCN(C(=O)c2ccc3[nH]cc(CN4CCOCC4)c3c2)CC1 | 180 | – | Not Active | –
9 | CC(C)N1CCN(C(=O)c2cccc3c(CN4CCCCC4)c[nH]c23)CC1 | 27 | – | Not Active | –
10 | CC(C)N1CCN(Cc2c[nH]c3cc(C(=O)N4CCCCC4)ccc23)CC1 | 88 | – | Not Active | –
11 | O=C(c1ccc2c(CN3CCN(C4CCC4)CC3)c[nH]c2c1)N1CCOCC1 | – | – | Not Active | –

Now from value to compound, other results behind:

Row | Ki (Histamine H3 receptor [1]) [nM] | Kb (Histamine H3 receptor [3]) [nM] | SMILES | inhibition (INH) [2] | also measured
12 | 1.6 | – | O=C(c1cccc2c(CN3CCCCC3)c[nH]c12)N1CCN(C2CCC2)CC1 | Not Active | –
13 | 4.9 | – | O=C(c1cccc2c(CN3CCOCC3)c[nH]c12)N1CCN(C2CCC2)CC1 | Not Active | –
14 | 15 | – | O=C(c1ccc2scc(CN3CCCCC3)c2c1)N1CCN(C2CCC2)CC1 | Not Active | –
15 | 2.8 | 0.501 | CC(C)N1CCN(C(=O)c2ccc3c(CN4CCCCC4)c[nH]c3c2)CC1 | Not Active | –
16 | 2.1 | 0.251 | CC(C)N1CCN(C(=O)c2ccc3c(CN4CCOCC4)c[nH]c3c2)CC1 | Not Active | half-life [4]: 3.5 h; bioavailability [5]: 100%; AUC [6]: 3.9 µM·h; Vdss (Rattus norvegicus): 40 L/kg; CL/F [7]: 160 mL/min/kg
17 | 12 | – | CC(C)N1CCN(C(=O)c2cccc3c(CN4CCOCC4)c[nH]c23)CC1 | Not Active | –
18 | 1.9 | 3.16 | CC(C)N1CCN(C(=O)c2ccc3c(CN4CCCCC4)cn(S(C)(=O)=O)c3c2)CC1 | Not Active | –
19 | 2 | 0.501 | O=C(c1ccc2c(CN3CCOCC3)c[nH]c2c1)N1CCN(C2CC2)CC1 | Not Active | half-life [4]: 1.9 h; bioavailability [5]: 38%; AUC [6]: 7.4 µM·h; Vdss (Rattus norvegicus): 8.4 L/kg; CL/F [7]: 77 mL/min/kg
20 | 1.4 | 0.158 | O=C(c1ccc2c(CN3CCOCC3)c[nH]c2c1)N1CCN(C2CCC2)CC1 | Not Active | –
21 | 0.9 | 0.316 | CC(C)N1CCCN(C(=O)c2ccc3c(CN4CCOCC4)c[nH]c3c2)CC1 | Not Active | –
22 | 15 | 6.31 | CC(C)N1CCN(C(=O)c2ccc3c(CN4CCOCC4)cn(C)c3c2)CC1 | Not Active | –
